Assay results as given in US8846933B2, “N-link hydroxamic acid derivatives useful as antibacterial agents” (Pfizer Inc., priority 2009, dated 2014).

Legend:
[1] = test system: Pseudomonas aeruginosa UI-18: Wild-type (PA-7); assay: MIC determination (CLSI), strain PA-7; format: cell-based; details: strain PA-7; unit assumed
Procedure, shortened: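 MIC determined by broth dilution per CLSI M7-A7 guidelines with M100-S18 interpretive standards. Test organism: wild-type Pseudomonas aeruginosa UI-18, designated PA-7.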

[2] = test system: Escherichia coli EC-1: VOGEL, mouse virulent; assay: MIC determination (CLSI), strain EC-1; format: cell-based; details: strain EC-1; unit assumed
Procedure, shortened: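 The mouse-virulent VOGEL isolate of E. coli, EC-1, served as test organism. Minimum inhibitory concentration was measured by CLSI dilution methodology (M7-A7; M100-S18 standards).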

**Q.** With `Cc1ccc2ccc(-c3ccn(CCC(C)(C(=O)NO)S(C)(=O)=O)c(=O)c3)cc2n1` (centres unmarked) [Example 305, N-hydroxy-2-methyl-4-[4-(2-methylquinolin-7-yl)-2-oxopyridin-1(2H)-yl]-2-(methylsulfonyl)butanamide] as the compound, how does the PA-7 (MIC) [1] read?
**A.** > 64 µg/mL

**Q.** What about the EC-1 (MIC) [2] of the same compound?
**A.** 16 µg/mL

**Q.** `CC(CCn1ccc(-c2cc3ccncc3cc2F)cc1=O)(C(=O)NO)S(C)(=O)=O` (centres unmarked) [Example 306, 4-[4-(7-fluoroisoquinolin-6-yl)-2-oxopyridin-1(2H)-yl]-N-hydroxy-2-methyl-2-(methylsulfonyl)butanamide] was tested. Which PA-7 (MIC) [1] did it give?
**A.** 4 µg/mL

**Q.** What about the EC-1 (MIC) [2] of the same compound?
**A.** 8 µg/mL

**Q.** What does the source list for `CC(CCn1ccc(-c2cccc(OCCCO)c2F)cc1=O)(C(=O)NO)S(C)(=O)=O` (centres unmarked) [Example 307, 4-{4-[2-fluoro-3-(3-hydroxypropoxy)phenyl]-2-oxopyridin-1(2H)-yl}-N-hydroxy-2-methyl-2-(methylsulfonyl)butanamide]?
**A.** PA-7 (MIC) [1]: 16 µg/mL; EC-1 (MIC) [2]: 16 µg/mL

**Q.** How did the PA-7 (MIC) [1] turn out when `Cc1cnc2cc(-c3ccn(CCC(C)(C(=O)NO)S(C)(=O)=O)c(=O)c3)ccc2c1` (centres unmarked) [Example 308, N-hydroxy-2-methyl-4-[4-(3-methylquinolin-7-yl)-2-oxopyridin-1(2H)-yl]-2-(methylsulfonyl)butanamide] was run?
**A.** 4 µg/mL

**Q.** What about the EC-1 (MIC) [2] of the same compound?
**A.** 2 µg/mL

**Q.** For `CC(CCn1ccc(-c2ccc3cc(CO)ccc3c2)cc1=O)(C(=O)NO)S(C)(=O)=O` (centres unmarked) [Example 309, N-hydroxy-4-{4-[6-(hydroxymethyl)-2-naphthyl]-2-oxopyridin-1(2H)-yl}-2-methyl-2-(methylsulfonyl)butanamide], which PA-7 (MIC) [1] is on record?
**A.** 4 µg/mL

**Q.** And the EC-1 (MIC) [2]?
**A.** 1 µg/mL

**Q.** `COc1ccc(-c2ccc(-c3ccn(CC[C@](C)(C(=O)NO)S(C)(=O)=O)c(=O)c3)cc2)cn1` [Example 310, (2R)-N-hydroxy-4-{4-[4-(6-methoxypyridin-3-yl)phenyl]-2-oxopyridin-1(2H)-yl}-2-methyl-2-(methylsulfonyl)butanamide] was tested. Which PA-7 (MIC) [1] did it give?
**A.** 0.5 µg/mL

**Q.** What about the EC-1 (MIC) [2] of the same compound?
**A.** 0.125 µg/mL

**Q.** Which PA-7 (MIC) [1] does the source give for `C[C@@](CCn1ccc(-c2ccc(OCC3CCN(C(=O)CO)CC3)cc2)cc1=O)(C(=O)NO)S(C)(=O)=O` [Example 311, (2R)-4-[4-{4-[(1-glycoloylpiperidin-4-yl)methoxy]phenyl}-2-oxopyridin-1(2H)-yl]-N-hydroxy-2-methyl-2-(methylsulfonyl)butanamide] here?
**A.** 4 µg/mL

**Q.** What about the EC-1 (MIC) [2] of the same compound?
**A.** 1 µg/mL

**Q.** What does the source list for `C[C@@](CCn1ccc(-c2ccc(OCCC3CCN(C(=O)CO)CC3)cc2)cc1=O)(C(=O)NO)S(C)(=O)=O` [Example 312, (2R)-4-[4-{4-[2-(1-glycoloylpiperidin-4-yl)ethoxy]phenyl}-2-oxopyridin-1(2H)-yl]-N-hydroxy-2-methyl-2-(methylsulfonyl)butanamide]?
**A.** PA-7 (MIC) [1]: 4 µg/mL; EC-1 (MIC) [2]: 0.5 µg/mL

**Q.** With `C[C@@](CCn1ccc(-c2ccc(OCCCC3CCN(C(=O)CO)CC3)cc2)cc1=O)(C(=O)NO)S(C)(=O)=O` [Example 313, (2R)-4-[4-{4-[3-(1-glycoloylpiperidin-4-yl)propoxy]phenyl}-2-oxopyridin-1(2H)-yl]-N-hydroxy-2-methyl-2-(methylsulfonyl)butanamide] as the compound, how does the PA-7 (MIC) [1] read?
**A.** 4 µg/mL

**Q.** And the EC-1 (MIC) [2]?
**A.** 0.5 µg/mL

**Q.** How did the PA-7 (MIC) [1] turn out when `C[C@@](CCn1ccc(-c2ccc3cc(OCCO)ccc3c2)cc1=O)(C(=O)NO)S(C)(=O)=O` [Example 314, (2R)-N-hydroxy-4-{4-[6-(2-hydroxyethoxy)-2-naphthyl]-2-oxopyridin-1(2H)-yl}-2-methyl-2-(methylsulfonyl)butanamide] was run?
**A.** 1 µg/mL

**Q.** And the EC-1 (MIC) [2]?
**A.** 0.5 µg/mL

**Q.** `C[C@@](CCn1ccc(-c2ccc3cc(CO)ccc3c2)cc1=O)(C(=O)NO)S(C)(=O)=O` [Example 315, (2R)-N-hydroxy-4-{4-[6-(hydroxymethyl)-2-naphthyl]-2-oxopyridin-1(2H)-yl}-2-methyl-2-(methylsulfonyl)butanamide] was tested. Which PA-7 (MIC) [1] did it give?
**A.** 1 µg/mL

**Q.** What about the EC-1 (MIC) [2] of the same compound?
**A.** 0.5 µg/mL

**Q.** Which results are given for `C[C@@](CCn1ccc(-c2ccc3ncc(F)cc3c2)cc1=O)(C(=O)NO)S(C)(=O)=O` [Example 316, (2R)-4-[4-(3-fluoroquinolin-6-yl)-2-oxopyridin-1(2H)-yl]-N-hydroxy-2-methyl-2-(methylsulfonyl)butanamide]?
**A.** PA-7 (MIC) [1]: 2 µg/mL; EC-1 (MIC) [2]: 4 µg/mL

**Q.** For `COc1ccc(-c2ccn(CC[C@](C)(C(=O)NO)S(C)(=O)=O)c(=O)c2)cc1F` [Example 317, (2R)-4-[4-(3-fluoro-4-methoxyphenyl)-2-oxopyridin-1(2H)-yl]-N-hydroxy-2-methyl-2-(methylsulfonyl)butanamide], which PA-7 (MIC) [1] is on record?
**A.** 1 µg/mL

**Q.** And the EC-1 (MIC) [2]?
**A.** 2 µg/mL

**Q.** What does the source list for `C[C@@](CCn1ccc(-c2ccc(OC[C@H]3CC[C@H](O)CC3)c(F)c2)cc1=O)(C(=O)NO)S(C)(=O)=O` [Example 318, (2R)-4-[4-{3-fluoro-4-[(trans-4-hydroxycyclohexyl)methoxy]phenyl}-2-oxopyridin-1(2H)-yl]-N-hydroxy-2-methyl-2-(methylsulfonyl)butanamide]?
**A.** PA-7 (MIC) [1]: 1 µg/mL; EC-1 (MIC) [2]: 0.25 µg/mL

**Q.** What does the source list for `C[C@@](CCn1ccc(-c2ccc(SCCCCO)cc2)cc1=O)(C(=O)NO)S(C)(=O)=O` [Example 319]?
**A.** PA-7 (MIC) [1]: 1 µg/mL; EC-1 (MIC) [2]: 0.25 µg/mL

**Q.** `CC(=O)c1ccc(-c2ccn(CC[C@](C)(C(=O)NO)S(C)(=O)=O)c(=O)c2)c(F)c1` [Example 320] was tested. Which PA-7 (MIC) [1] did it give?
**A.** 2 µg/mL

**Q.** What about the EC-1 (MIC) [2] of the same compound?
**A.** 1 µg/mL

**Q.** Which PA-7 (MIC) [1] does the source give for `C[C@@](CCn1ccc(-c2ccc(F)cc2F)cc1=O)(C(=O)NO)S(C)(=O)=O` [Example 321, (2R)-4-[4-(2,4-difluorophenyl)-2-oxopyridin-1(2H)-yl]-N-hydroxy-2-methyl-2-(methylsulfonyl)butanamide] here?
**A.** 1 µg/mL

**Q.** And the EC-1 (MIC) [2]?
**A.** 1 µg/mL

**Q.** How did the PA-7 (MIC) [1] turn out when `Cc1ccc(-c2ccn(CC[C@](C)(C(=O)NO)S(C)(=O)=O)c(=O)c2)cc1F` [Example 322, (2R)-4-[4-(3-fluoro-4-methylphenyl)-2-oxopyridin-1(2H)-yl]-N-hydroxy-2-methyl-2-(methylsulfonyl)butanamide] was run?
**A.** 0.5 µg/mL

**Q.** And the EC-1 (MIC) [2]?
**A.** 0.5 µg/mL

**Q.** With `Cc1cccc(-c2ccn(CC[C@](C)(C(=O)NO)S(C)(=O)=O)c(=O)c2)c1F` [Example 323, (2R)-4-[4-(2-fluoro-3-methylphenyl)-2-oxopyridin-1(2H)-yl]-N-hydroxy-2-methyl-2-(methylsulfonyl)butanamide] as the compound, how does the PA-7 (MIC) [1] read?
**A.** 0.5 µg/mL

**Q.** And the EC-1 (MIC) [2]?
**A.** 0.25 µg/mL

**Q.** `Cc1c(OCCCCO)ccc(-c2ccn(CC[C@](C)(C(=O)NO)S(C)(=O)=O)c(=O)c2)c1F` [Example 324] was tested. Which PA-7 (MIC) [1] did it give?
**A.** 2 µg/mL

**Q.** And the EC-1 (MIC) [2]?
**A.** 0.25 µg/mL

**Q.** `Cc1cc(-c2ccn(CC[C@](C)(C(=O)NO)S(C)(=O)=O)c(=O)c2)ccc1F` [Example 325, (2R)-4-[4-(4-fluoro-3-methylphenyl)-2-oxopyridin-1(2H)-yl]-N-hydroxy-2-methyl-2-(methylsulfonyl)butanamide] was tested. Which PA-7 (MIC) [1] did it give?
**A.** 0.5 µg/mL

**Q.** What about the EC-1 (MIC) [2] of the same compound?
**A.** 0.5 µg/mL

**Q.** Which PA-7 (MIC) [1] does the source give for `CC1(O)CCC(Oc2ccc(-c3ccn(CC[C@](C)(C(=O)NO)S(C)(=O)=O)c(=O)c3)c(F)c2)CC1` (stereo partly drawn) [Example 326, (2R)-4-[4-{2-fluoro-4-[(4-hydroxy-4-methylcyclohexyl)oxy]phenyl}-2-oxopyridin-1(2H)-yl]-N-hydroxy-2-methyl-2-(methylsulfonyl)butanamide] here?
**A.** 4 µg/mL

**Q.** What about the EC-1 (MIC) [2] of the same compound?
**A.** 0.5 µg/mL

**Q.** How did the PA-7 (MIC) [1] turn out when `C[C@@](CCn1ccc(-c2ccc3[nH]c(=O)ccc3c2)cc1=O)(C(=O)NO)S(C)(=O)=O` [Example 327, (2R)-N-hydroxy-2-methyl-2-(methylsulfonyl)-4-[2-oxo-4-(2-oxo-1,2-dihydroquinolin-6-yl)pyridin-1(2H)-yl]butanamide] was run?
**A.** > 64 µg/mL

**Q.** What about the EC-1 (MIC) [2] of the same compound?
**A.** 4 µg/mL

**Q.** For `COc1ccc2cc(-c3ccn(CC[C@](C)(C(=O)NO)S(C)(=O)=O)c(=O)c3)ccc2n1` [Example 328, (2R)-N-hydroxy-4-[4-(2-methoxyquinolin-6-yl)-2-oxopyridin-1(2H)-yl]-2-methyl-2-(methylsulfonyl)butanamide], which PA-7 (MIC) [1] is on record?
**A.** 1 µg/mL

**Q.** And the EC-1 (MIC) [2]?
**A.** 1 µg/mL

**Q.** With `C[C@@](CCn1ccc(-c2ccc(N3CCC(O)CC3)cc2)cc1=O)(C(=O)NO)S(C)(=O)=O` [Example 329, (2R)-N-hydroxy-4-{4-[4-(4-hydroxypiperidin-1-yl)phenyl]-2-oxopyridin-1(2H)-yl}-2-methyl-2-(methylsulfonyl)butanamide] as the compound, how does the PA-7 (MIC) [1] read?
**A.** 4 µg/mL

**Q.** What about the EC-1 (MIC) [2] of the same compound?
**A.** 1 µg/mL

**Q.** How did the PA-7 (MIC) [1] turn out when `C[C@@](CCn1ccc(-c2ccc3c(c2)OCCCO3)cc1=O)(C(=O)NO)S(C)(=O)=O` [Example 330, (2R)-4-[4-(3,4-dihydro-2H-1,5-benzodioxepin-7-yl)-2-oxopyridin-1(2H)-yl]-N-hydroxy-2-methyl-2-(methylsulfonyl)butanamide] was run?
**A.** 4 µg/mL

**Q.** What about the EC-1 (MIC) [2] of the same compound?
**A.** 0.5 µg/mL

**Q.** Which results are given for `C[C@@](CCn1ccc(-c2ccc(C(F)(F)F)nc2)cc1=O)(C(=O)NO)S(C)(=O)=O` [Example 331]?
**A.** PA-7 (MIC) [1]: 32 µg/mL; EC-1 (MIC) [2]: 0.25 µg/mL

**Q.** Which PA-7 (MIC) [1] does the source give for `CCOc1ccc(-c2ccn(CC[C@](C)(C(=O)NO)S(C)(=O)=O)c(=O)c2)cc1` [Example 332, (2R)-4-[4-(4-ethoxyphenyl)-2-oxopyridin-1(2H)-yl]-N-hydroxy-2-methyl-2-(methylsulfonyl)butanamide] here?
**A.** 0.5 µg/mL

**Q.** And the EC-1 (MIC) [2]?
**A.** 64 µg/mL

**Q.** How did the PA-7 (MIC) [1] turn out when `C[C@@](CCn1ccc(-c2ccc(OCC#N)cc2)cc1=O)(C(=O)NO)S(C)(=O)=O` [Example 333, (2R)-4-{4-[4-(cyanomethoxy)phenyl]-2-oxopyridin-1(2H)-yl}-N-hydroxy-2-methyl-2-(methylsulfonyl)butanamide] was run?
**A.** 8 µg/mL

**Q.** And the EC-1 (MIC) [2]?
**A.** 16 µg/mL

**Q.** With `COc1ccc(-c2ccn(CC[C@](C)(C(=O)NO)S(C)(=O)=O)c(=O)c2)cc1Cl` [Example 334, (2R)-4-[4-(3-chloro-4-methoxyphenyl)-2-oxopyridin-1(2H)-yl]-N-hydroxy-2-methyl-2-(methylsulfonyl)butanamide] as the compound, how does the PA-7 (MIC) [1] read?
**A.** 1 µg/mL

**Q.** And the EC-1 (MIC) [2]?
**A.** 8 µg/mL

**Q.** Which results are given for `C[C@@](CCn1ccc(-c2cc(F)cc(F)c2)cc1=O)(C(=O)NO)S(C)(=O)=O` [Example 335, (2R)-4-[4-(3,5-difluorophenyl)-2-oxopyridin-1(2H)-yl]-N-hydroxy-2-methyl-2-(methylsulfonyl)butanamide]?
**A.** PA-7 (MIC) [1]: 2 µg/mL; EC-1 (MIC) [2]: 1 µg/mL
